Test results taken from PubChem BioAssay AID1259407 (Chemical Carcinogenesis Research Information System (CCRIS), 2018).
Active and inactive are the calls of the source. The rule behind the calls is not given here.

Test system: CCRIS mutagenicity, Ames/micronucleus/aberration tests
Test: CCRIS mutagenicity studies
[1] = Test System: AMES SALMONELLA TYPHIMURIUM, Strain/Indicator: TA98, Metabolic Activation: HAMSTER, LIVER, S-9, AROCLOR 1254 (10%), Method: PREINCUBATION
[2] = Test System: AMES SALMONELLA TYPHIMURIUM, Strain/Indicator: TA98, Metabolic Activation: NONE, Method: PREINCUBATION
[3] = Test System: AMES SALMONELLA TYPHIMURIUM, Strain/Indicator: TA100, Metabolic Activation: HAMSTER, LIVER, S-9, AROCLOR 1254 (10%), Method: PREINCUBATION
[4] = Test System: AMES SALMONELLA TYPHIMURIUM, Strain/Indicator: TA100, Metabolic Activation: NONE, Method: PREINCUBATION
[5] = Test System: AMES SALMONELLA TYPHIMURIUM, Strain/Indicator: TA1535, Metabolic Activation: HAMSTER, LIVER, S-9, AROCLOR 1254 (10%), Method: PREINCUBATION
[6] = Test System: AMES SALMONELLA TYPHIMURIUM, Strain/Indicator: TA1535, Metabolic Activation: NONE, Method: PREINCUBATION

`O=c1[nH]cc(F)c(=O)[nH]1` was tested, and the mutagenic call (End Point: IN VITRO MICRONUCLEUS, Test System: CHL/IU CELLS, Metabolic Activation: NONE) was “active; positive”, the mutagenic call (End Point: IN VIVO CHROMOSOMAL ABERRATIONS, Test System: BONE MARROW CELLS, Species: MOUSE, Strain/Sex: SWISS/MALE, FEMALE, Route: IP) was “active; positive (aberrant metaphases)” and the mutagenic call (End Point: IN VIVO MICRONUCLEUS, Test System: BLOOD ERYTHROCYTES, Species: MOUSE, Strain/Sex: CD-1/MALE, Route: INTRAPERITONEAL INJECTION) was “active; positive (at highest dose)”. The mutagenic call (End Point: IN VIVO MICRONUCLEUS, Test System: BONE MARROW POLYCHROMATIC ERYTHROCYTES, Species: MOUSE, Strain/Sex: SWISS/MALE, FEMALE, Route: IP) was “active; positive”, the mutagenic call (End Point: In vitro micronucleus, Test System: Human lymphoblastoid TK6 cells, Metabolic Activation: None) was “active; positive (p<0.001)” and the mutagenic call (End Point: In vivo micronucleus, Test System: Micronucleated hepatocytes, Species: Rat, Strain/Sex: F344/Male, Route: Intraperitoneal) was “inactive; negative”. For the same compound, the mutagenic call [1] was “inactive; negative”, the mutagenic call [2] was “inactive; negative” and the mutagenic call (Test System: AMES SALMONELLA TYPHIMURIUM, Strain/Indicator: TA98, Metabolic Activation: NONE, Method: STANDARD PLATE) was “inactive; negative”. The mutagenic call (Test System: AMES SALMONELLA TYPHIMURIUM, Strain/Indicator: TA98, Metabolic Activation: RAT, LIVER, S-9, AROCLOR 1254 (10%), Method: PREINCUBATION) was “inactive; negative”, the mutagenic call (Test System: AMES SALMONELLA TYPHIMURIUM, Strain/Indicator: TA98, Metabolic Activation: S-9, Method: PREINCUBATION) was “inactive; negative” and the mutagenic call (Test System: AMES SALMONELLA TYPHIMURIUM, Strain/Indicator: TA98, Metabolic Activation: S-9, Method: STANDARD PLATE) was “inactive; negative”. For the same compound, the mutagenic call [3] was “inactive; negative”, the mutagenic call [4] was “inactive; negative” and the mutagenic call (Test System: AMES SALMONELLA TYPHIMURIUM, Strain/Indicator: TA100, Metabolic Activation: NONE, Method: STANDARD PLATE) was “inactive; negative”. The mutagenic call (Test System: AMES SALMONELLA TYPHIMURIUM, Strain/Indicator: TA100, Metabolic Activation: RAT, LIVER, S-9, AROCLOR 1254 (10%), Method: PREINCUBATION) was “inactive; negative”, the mutagenic call (Test System: AMES SALMONELLA TYPHIMURIUM, Strain/Indicator: TA100, Metabolic Activation: S-9, Method: PREINCUBATION) was “inactive; negative” and the mutagenic call (Test System: AMES SALMONELLA TYPHIMURIUM, Strain/Indicator: TA100, Metabolic Activation: S-9, Method: STANDARD PLATE) was “inactive; negative”. The mutagenic call (Test System: AMES SALMONELLA TYPHIMURIUM, Strain/Indicator: TA102, Metabolic Activation: NONE, Method: STANDARD PLATE) was “inactive; negative”, the mutagenic call [5] was “inactive; negative” and the mutagenic call [6] was “inactive; negative”. The mutagenic call (Test System: AMES SALMONELLA TYPHIMURIUM, Strain/Indicator: TA1535, Metabolic Activation: RAT, LIVER, S-9, AROCLOR 1254 (10%), Method: PREINCUBATION) was “inactive; negative”, the mutagenic call (Test System: AMES SALMONELLA TYPHIMURIUM, Strain/Indicator: TA1537, Metabolic Activation: HAMSTER, LIVER, S-9, AROCLOR 1254 (10%), Method: PREINCUBATION) was “inactive; negative” and the mutagenic call (Test System: AMES SALMONELLA TYPHIMURIUM, Strain/Indicator: TA1537, Metabolic Activation: NONE, Method: PREINCUBATION) was “inactive; negative”. The mutagenic call (Test System: AMES SALMONELLA TYPHIMURIUM, Strain/Indicator: TA1537, Metabolic Activation: NONE, Method: STANDARD PLATE) was “inactive; negative”, the mutagenic call (Test System: AMES SALMONELLA TYPHIMURIUM, Strain/Indicator: TA1537, Metabolic Activation: RAT, LIVER, S-9, AROCLOR 1254 (10%), Method: PREINCUBATION) was “inactive; negative” and the mutagenic call (Test System: AMES SALMONELLA TYPHIMURIUM, Strain/Indicator: TA2638, Metabolic Activation: NONE, Method: STANDARD PLATE) was “inactive; negative”. For the same compound, the mutagenic call (Test System: E. COLI, Strain/Indicator: WP2 (HCR), Metabolic Activation: NONE, Method: STANDARD PLATE) was “inactive; negative”, the mutagenic call (Test System: E. COLI, Strain/Indicator: WP2 (HCR), Metabolic Activation: S-9, Method: STANDARD PLATE) was “inactive; negative” and the mutagenic call (Test System: E. COLI, Strain/Indicator: WP2 (PKM101), Metabolic Activation: NONE, Method: STANDARD PLATE) was “inactive; negative”. The mutagenic call (Test System: E. COLI, Strain/Indicator: WP2 UVRA (PKM101), Metabolic Activation: NONE, Method: STANDARD PLATE) was “inactive; negative”, the mutagenic call (Test System: MOUSE LYMPHOMA, Strain/Indicator: L5178Y (TK+/TK-), Metabolic Activation: NONE, Method: MICROWELL) was “active; positive” and the mutagenic call (Test System: MOUSE LYMPHOMA, Strain/Indicator: L5178Y (TK+/TK-), Metabolic Activation: S-9, Method: MICROWELL) was “active; positive”.
`CN1CCc2cc3c(c4c2[C@H]1[C@H](O)c1ccccc1-4)OCO3` was tested, and the mutagenic call (Test System: AMES SALMONELLA TYPHIMURIUM, Strain/Indicator: TA98, Metabolic Activation: RAT, LIVER, S-9, PHENOBARBITAL AND BETA-NAPHTHOFLAVONE, Method: PREINCUBATION) was “active; positive” and the mutagenic call (Test System: AMES SALMONELLA TYPHIMURIUM, Strain/Indicator: TA100, Metabolic Activation: RAT, LIVER, S-9, PHENOBARBITAL AND BETA-NAPHTHOFLAVONE, Method: PREINCUBATION) was “active; positive”.
In the case of `CC(C)(C)OOC(C)(C)C`, the mutagenic call (Test System: AMES SALMONELLA TYPHIMURIUM, Strain/Indicator: TA97, Metabolic Activation: HAMSTER, LIVER, S-9, AROCLOR 1254 (10%), Method: PREINCUBATION) is reported as “inactive; negative”, the mutagenic call (Test System: AMES SALMONELLA TYPHIMURIUM, Strain/Indicator: TA97, Metabolic Activation: HAMSTER, LIVER, S-9, AROCLOR 1254 (30%), Method: PREINCUBATION) is reported as “inactive; negative” and the mutagenic call (Test System: AMES SALMONELLA TYPHIMURIUM, Strain/Indicator: TA97, Metabolic Activation: NONE, Method: PREINCUBATION) is reported as “inactive; negative”. For the same compound, the mutagenic call (Test System: AMES SALMONELLA TYPHIMURIUM, Strain/Indicator: TA97, Metabolic Activation: RAT, LIVER, S-9, AROCLOR 1254 (10 OR 30%), Method: PREINCUBATION) was “inactive; negative”, the mutagenic call [1] was “inactive; negative” and the mutagenic call (Test System: AMES SALMONELLA TYPHIMURIUM, Strain/Indicator: TA98, Metabolic Activation: HAMSTER, LIVER, S-9, AROCLOR 1254 (30%), Method: PREINCUBATION) was “inactive; negative”. For the same compound, the mutagenic call [2] was “inactive; negative”, the mutagenic call (Test System: AMES SALMONELLA TYPHIMURIUM, Strain/Indicator: TA98, Metabolic Activation: RAT, LIVER, S-9, AROCLOR 1254 (10 OR 30%), Method: PREINCUBATION) was “inactive; negative” and the mutagenic call [3] was “inactive; negative”. For the same compound, the mutagenic call (Test System: AMES SALMONELLA TYPHIMURIUM, Strain/Indicator: TA100, Metabolic Activation: HAMSTER, LIVER, S-9, AROCLOR 1254 (30%), Method: PREINCUBATION) was “inactive; negative”, the mutagenic call [4] was “inactive; negative” and the mutagenic call (Test System: AMES SALMONELLA TYPHIMURIUM, Strain/Indicator: TA100, Metabolic Activation: RAT, LIVER, S-9, AROCLOR 1254 (10 OR 30%), Method: PREINCUBATION) was “inactive; negative”. The mutagenic call [5] was “inactive; negative”, the mutagenic call (Test System: AMES SALMONELLA TYPHIMURIUM, Strain/Indicator: TA1535, Metabolic Activation: HAMSTER, LIVER, S-9, AROCLOR 1254 (30%), Method: PREINCUBATION) was “inactive; negative” and the mutagenic call [6] was “inactive; negative”. For the same compound, the mutagenic call (Test System: AMES SALMONELLA TYPHIMURIUM, Strain/Indicator: TA1535, Metabolic Activation: RAT, LIVER, S-9, AROCLOR 1254 (10 OR 30%), Method: PREINCUBATION) was “inactive; negative”.
